Results on five molecules are retold here after patent US9989535B2, “Methods and reagents for analyzing protein-protein interfaces” (Warp Drive Bio, Inc., priority 2015, dated 2018).

Common to all, as to format: binding
For test [1], the target named is T1, KRASGTP/S39C lite (Homo sapiens, UniProt P01116, C118S/C51S/C80L/G12V/S39C).
T1 construct: residues 1-169 containing G12V/S39C/C51S/C80L/C118S; made in house
As to the kind of experiment: Formation of KRASGTP/S39C lite/C2-FK506 conjugates, SDS-PAGE. As for the experimental part: (§1) Experimental Protocol: A 1:2 molar ratio of target protein and compound are mixed together in 12.5 mM HEPES pH 7.4, 75 mM NaCl buffer containing 2% DMSO. The reaction is incubated at 37° C. for 30 min, followed by overnight incubation at room temperature. Cross-linking efficiency is assessed by SDS-PAGE gel. Conjugates migrate slower than non-cross-linked target protein. For thiol reactive compounds, the Cys specific attachment of the compound to the target protein can be further confirmed by SDS-PAGE after the addition of 100 mM DTT to the reaction mixture, which reduces the conjugate back into its components.
Experimental Protocol: A 1:2 molar ratio of KRASGTP/S39C lite and C2-FK506 are mixed together in 12.5 mM HEPES pH 7.4, 75 mM NaCl buffer containing 2% DMSO. The reaction is incubated at 37° C. for 30 min, followed by overnight incubation at room temperature. Cross-linking efficiency is assessed by SDS-PAGE gel. Attachment of C2-FK506 to Cysteine 39 on KRASGTP/S39C lite is also assessed by incubation of the reaction mixture with 100 mM DTT.

Test [2] addresses T2, KRASGTP/S39C lite/FKBP12 (Homo sapiens, UniProt P01116+P62942, C118S/C51S/C80L/G12V/S39C).
T2 construct: residues 1-169 containing G12V/S39C/C51S/C80L/C118S; made in house
Kind of test: Ternary complex formation by SEC and SDS-PAGE. To be noted: SEC profile and SDS-PAGE of elution peaks. As for the experimental part: (§2) A 1:2:2 molar ratio of compound, presenter protein, and target protein are mixed together in 12.5 mM HEPES pH 7.4, 75 mM NaCl buffer containing 2% DMSO. The reaction is incubated at 37° C. for 30 min, followed by overnight incubation at room temperature. Pure complex is isolated by Size Exclusion Chromatography (SEC) purification. The reaction mixture is directly injected on a Superdex 75 column (CV 120 mL) pre-equilibrated with buffer containing 12.5 mM HEPES pH 7.4, 75 mM NaCl. Complex elutes at a higher molecular weight than unreacted target protein and presenter protein. To confirm presence of complex in the elution peak, samples are assessed by SDS-PAGE.
(§3) The reaction is incubated at 37° C. for 30 min, followed by overnight incubation at room temperature. Pure complex is isolated by Size Exclusion Chromatography (SEC) purification. The reaction mixture is directly injected on a Superdex 75 column (CV 120 mL) pre-equilibrated with buffer containing 12.5 mM HEPES pH 7.4, 75 mM NaCl. Complex elutes at around 69 mL post injection and unreacted KRASGTP/S39C lite and FKBP12 elutes at around 75 mL and 87 mL post injection respectively. To confirm the presence of KRASGTP/S39C lite and FKBP12 in the elution peak, samples are also assessed by SDS-PAGE.
For orientation: In gel filtration, larger molecules generally elute earlier.

Test [3] concerns the target T3, KRASGTP/G12C (Homo sapiens, UniProt P01116+P62942, G12C).
T3 construct: KRASGTP/G12C (in-house, residues 1-169); made in house
Kind of test: Cross-linking gel shift assay (12% SDS-PAGE), with or without FKBP12. To be noted: 60 μM KRAS, 180 μM FKBP12, 180 μM ligand, quenched by MMTS. As for the experimental part: In parallel to mass spectrometry analysis, cross-linking reactions with C3- or C4-SLF were subjected to gel shift assay using 12% SDS-PAGE in the presence or absence of FKBP12 at the same experimental condition described above except that cross-linking reactions were set up at higher concentrations (60 μM KRAS, 180 μM FKBP12, and 180 μM C3- or C4-SLF) and they were quenched by MMTS to terminate the reaction.
A general note: In EMSA bound probe runs differently from free probe, usually more slowly.

Test [4] addresses T3, KRASGTP/G12C. Kind of test: Disulfide cross-linking efficiency by mass spectrometry, with or without FKBP12. To be noted: 2 μM KRAS, 10 μM ligand, 4 hours RT, MS. As for the experimental part: Experimental protocol: In order to follow the kinetics of disulfide crosslinking reactions, Agilent 6230 TOF-LC/MS and Agilent 1260 HPLC instruments employing a AdvanceBio RP-mAb C4 column (2.1×100 mm, 3.5 μm) and equipped with an auto-sampler were used. HPLC grade acetonitrile and water (each containing 1.0 mM ammonium formate and 1% formic acid by volume) were used as mobile phase with the following ramp: 0.6 ml/min flow rate, water:acetonitrile=95:5 from 0.0 to 13.0 min ramping to water:acetonitrile=5:95 from 13.0 to 17.0 min. Total time=17.0 min.
All crosslinking reactions were performed in 1.5 mL amber colored glass vials equipped with 0.5 mL glass inserts. A water-soluble peptide (SEQ ID NO: 1: […]) was employed as an internal standard. Although the actual sequence of the internal standard is inconsequential, choice of amino acid residues were critical to avoid interference in the crosslinking assays. […] All reactions and standard solutions were prepared in HEPES (pH 7.4, 1.0 mM MgCl2) buffer.
Prior to every reaction, a standard curve was obtained for the individual components using a series of standard solutions (an example of standard curve analysis for FKBP12 is shown in Table 3 below). Using the data from standard curve, μmol of protein samples were plotted against the ratio of areas (sample:std) and a linear fit (y=mx+c) was employed to obtain the slope and intercept. The value of slope and intercept involved in these standard curves were accounted for during evaluation of the substrate and product concentration before and during the course of the reaction. For every substrate/product, an initial injection was followed up by a blank injection to verify presence of any residual protein/reagents. Based on this analysis the sequence of auto-sampler can be adjusted to included appropriate number of blank injections for removal of residual components, if any. The MS spectra were analyzed using Agilent MassHunter v B.07.0 software.
In a representative experiment to assess the presenter dependency of ligand cross-linking on the target protein, KRASGTP/G12C and either C3- or C4-SLF ligand were incubated in the presence or absence of FKBP12 at concentrations of 2 μM KRAS, 10 μM FKBP12, 10 μM C3- or C4-SLF for 4 hours at room temperature in 12.5 mM HEPES pH 7.4, 75 mM NaCl, 1 mM MgCl2, 3% DMSO. Analysis of the amount of KRAS undergoing disulfide cross-linking with the ligand using the method above.

Test [5] has as its target T4, KRASGDP/S39C lite/CypAC52S (Homo sapiens, UniProt P01116+P62937, C118S/C51S/C52S/C80L/G12V/S39C).
T4 construct: residues 1-169 containing G12V/S39C/C51S/C80L/C118S; made in house
Kind of test: Ternary complex formation by SEC and SDS-PAGE. Conditions: SEC profile and SDS-PAGE of elution peaks. As for the experimental part:
as §2
as §3, with “KRASGDP/S39C” for “KRASGTP/S39C”, “CypAC52S” for “FKBP12”, “80” for “87”

Test [6] deals with T5, KRASGTP/G12C lite (Homo sapiens, UniProt P01116, C118S/C51S/C80L/G12C).
T5 construct: residues 1-169 containing G12C/C51S/C80L/C118S; made in house
Kind of test: Formation of KRASGTP/G12C lite/SFAX9DS conjugates, SDS-PAGE. To be noted: 1:2 protein:compound. As for the experimental part:
as §1
(§4) Experimental Protocol: A 1:2 molar ratio of KRASGTP/G12C lite and SFAX9DS are mixed together in 12.5 mM HEPES pH 7.4, 75 mM NaCl buffer containing 2% DMSO. The reaction is incubated at 37° C. for 30 min, followed by overnight incubation at room temperature. Cross-linking efficiency is assessed by SDS-PAGE gel. Wild-type CypA also cross-linked with the compound. Cysteine 52 as a reactive Cysteine on CypA and was mutated to Serine to abrogate presenter cross-linking.

Test [7] concerns the target T6, CypAC52S (Homo sapiens, UniProt P62937, C52S).
T6 construct: made in house
Kind of test: Presenter cross-linking with SFAX9DS, SDS-PAGE. The procedure:
as §4

SMILES strings stand for the structures.

T6 sequence (P62937 whole entry C52S): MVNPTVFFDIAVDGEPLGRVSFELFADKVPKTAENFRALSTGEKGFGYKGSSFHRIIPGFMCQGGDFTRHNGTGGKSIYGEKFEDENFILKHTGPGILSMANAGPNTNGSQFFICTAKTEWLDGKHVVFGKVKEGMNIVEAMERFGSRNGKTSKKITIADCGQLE

As for `CO[C@H]1C[C@@H](C)C/C(C)=C/[C@@H](CCCC(=O)NCCSSc2ccccn2)C(=O)C[C@H](O)[C@@H](C)[C@@H](/C(C)=C/[C@@H]2CC[C@@H](O)[C@H](OC)C2)OC(=O)[C@@H]2CCCCN2C(=O)C(=O)[C@]2(O)O[C@H]1[C@@H](OC)C[C@H]2C` [Compound C2-FK506], the “Cross-linking efficiency with KRASGTP/S39C lite” value in test [1] (1:2 protein:compound, 37° C. 30 min then overnight RT) is reported as “cross-links efficiently”. The “Site specificity of attachment” value in test [1] (reaction mixture + 100 mM DTT) is reported as “specific for Cysteine 39”.

On to `CCC(C)(C)C(=O)C(=O)N1CCCC[C@H]1C(=O)OCCCC(=O)NCCSSc1ccccn1` [Compound C2-Holt], for which the “Formation of KRASGTP/S39C lite/C2-Holt/FKBP12 complex” value in test [2] is on record as “confirm the formation”.

With `CCC(C)(C)C(=O)C(=O)N1CCCC[C@H]1C(=O)O[C@H](CCc1ccc(OC)c(OC)c1)c1cccc(NC(=O)CCCSSc2ccccn2)c1` [Compound C4-SLF, (R)-3-(3,4-dimethoxyphenyl)-1-(3-(4-(pyridin-2-yldisulfanyl)butanamido)phenyl)propyl (S)-1-(3,3-dimethyl-2-oxopentanoyl)piperidine-2-carboxylate], the “Ligand cross-linking efficiency in the presence of FKBP12, gel shift” value in test [3] is “boosted significantly”. Moreover, the results for the “% × link to KRAS” value in test [4] (FKBP12 absent (−)) and in test [4] (FKBP12 present (+) 10 μM) were 7.0% and 69.8%, respectively.

With `COC(=O)[C@@H]1CCCN(C(=O)[C@H](Cc2cccc(O)c2)NC(=O)[C@@H](NC(=O)CCCSSc2ccccn2)C(C)C)N1` [SFAC4DS, methyl (S)-1-((S)-3-(3-hydroxyphenyl)-2-((S)-3-methyl-2-(4-(pyridin-2-yldisulfanyl)butanamido)butanamido)propanoyl)hexahydropyridazine-3-carboxylate], the “Formation of KRASGDP/S39C lite/SFAC4DS/CypAC52S complex” value in test [5] is reported as “confirm the formation”.

Take `COC(=O)[C@@H]1CCCN(C(=O)[C@H](Cc2cccc(O)c2)NC(=O)[C@@H](NC(=O)CCOCCOCCSSc2ccccn2)C(C)C)N1` [SFAX9DS]: the “Cross-linking efficiency with KRASGTP/G12C lite” value in test [6] is “cross-links efficiently”. In test [7], the “Cross-linking of presenter CypAC52S to compound” value is on record as “does not cross-link”.
